Measured values published in patent publication US8101764B2, “MCH receptor antagonists” (Eli Lilly and Company, priority 2006, dated 2012).
Structures can show the parent of a compound that is named as a salt.

Columns and labels:
human MCHR1 [1] = target: T1, human MCHR1 (Homo sapiens, UniProt Q99705); test: Inhibition of MCH-stimulated GTPγ35S binding to clone 43 membranes (functional antagonism); type: biochemical; details: 10 nM MCH, Kb from IC50 by modified Cheng-Prusoff
T1 construct: The full-length cDNA for human MCHR1 is cloned from a human adult brain cDNA library; expressed in transfected cells; host or cells: AV12 cells previously transfected with Gα15; membranes
T1 sequence (Q99705 whole entry): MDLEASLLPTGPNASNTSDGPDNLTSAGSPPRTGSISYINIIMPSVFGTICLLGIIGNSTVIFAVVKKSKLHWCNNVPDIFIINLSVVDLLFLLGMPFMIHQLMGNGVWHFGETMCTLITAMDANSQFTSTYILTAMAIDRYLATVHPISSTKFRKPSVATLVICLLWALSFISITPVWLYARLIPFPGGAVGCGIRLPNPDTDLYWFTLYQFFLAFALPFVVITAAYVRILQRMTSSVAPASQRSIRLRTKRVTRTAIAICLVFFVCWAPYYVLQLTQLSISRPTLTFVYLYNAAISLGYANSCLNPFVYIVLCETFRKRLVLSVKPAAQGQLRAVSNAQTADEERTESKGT
Procedure: (§1) The full-length cDNA for human MCHR1 is cloned from a human adult brain cDNA library (Edge Biosystems, Cat. 38356) by standard polymerase chain reaction (PCR) methodology employing the following primers: sense, 5′-GCCACCATGGACCT GGAAGCCTCGCTGC-3′ (SEQ ID NO:1); anti-sense, 5′-[…]-3′ (SEQ ID NO:2). The PCR reaction is performed in a final volume of 50 μL containing 5 μL of a 10× stock solution of PCR buffer, 1 μL of 10 mM dNTP mixture (200 μM final), 2 μL of 50 mM Mg(SO4) (2 mM final), 0.5 μL of 20 μM solutions of each primer (0.2 μM final), 5 μL of template cDNA containing 0.5 ng DNA, 0.5 μL of Platinum Taq High Fidelity DNA polymerase (Gibco Life Technologies) and 36 μL of H2O. PCR amplification is performed on a Perkin Elmer 9600 thermocycler. Perform denaturation for 90 sec at 94° C., and repeat an amplification sequence consisting of 94° C. for 25 sec, 55° C. for 25 sec and 72° C. for 2 mM 30 times, followed by a final elongation step at 72° C. for 10 min. […]
(§2) In order to generate cell lines stably expressing MCHR1, subclone the insert into the Xba I and Not I sites of pcDNA(+)-3.1-neomycin (Invitrogen). […] The G418-resistant colonies are further selected for MCHR1 expression by measuring MCH-stimulated Ca^2+ transients with a fluorometric imaging plate reader (FLIPR, Molecular Devices). […]

[2] = In vivo efficacy in diet-induced obese rats, oral gavage, body weight change over 3 days; details: 10 mg/Kg orally once a day for 3 days, diet-induced obese male Long-Evans rats
Procedure: Vehicle consisted of 10% acacia and 0.15% saccharin in water.
House animals individually in a temperature regulated room (24° C.) with a reverse 12 hour light/dark cycle (dark 10:00/22:00). Make water and food (Teklad 95217, Harlan, WI) available ad libitum. Dose compounds orally once a day before onset of dark for 3 days. Measure daily food intake and body weight change for the 3 day period. The compound of Example 5 produced an average body weight reduction of about 11 grams @ 10 mg/Kg versus vehicle control.

human MCHR1 [3] = target: T1, human MCHR1; test: 125I-MCH competitive binding assay with clone 43 membranes; details: Ki from IC50 by Cheng-Prusoff
Procedure: as §1, with “H2O.” for “H2O. PCR amplification is performed on a Perkin Elmer 9600 thermocycler. Perform denaturation for 90 sec at 94° C., and repeat an amplification sequence consisting of 94° C. for 25 sec, 55° C. for 25 sec and 72° C. for 2 mM 30 times, followed by a final elongation step at 72° C. for 10 min.”
as §2
Binding of compounds to MCHR1 is assessed in a competitive binding assay employing ^125I-MCH, compound and clone 43 membranes. […] Non-specific binding is assessed in the presence of 0.1 μM unlabeled MCH. Bound ^125I-MCH is determined by placing sealed plates in a Microbeta Trilux (Perkin Elmer Life and Analytical Sciences Inc.) and counting after a 12 h delay. […]

Row | Kb (human MCHR1 [1]) | Ki (human MCHR1 [3]) | SMILES | average body weight reduction versus vehicle control [2]
1 | ~7 nM | – | CN(C)[C@@H]1CCN(c2ccc(N3CCc4cc(-c5ccc(Cl)cc5)sc4C3=O)cn2)C1.Cl [Example 5, 2-(4-Chloro-phenyl)-6-[6-((R)-3-dimethylamino-pyrrolidin-1-yl)-pyridin-3-yl]-5,6-dihydro-4H-thieno[2,3-c]pyridin-7-one, hydrochloride] | about 11 grams
2 | – | ~9 nM | CN(C)[C@@H]1CCN(c2ccc(-n3ccc4cc(-c5ccc(OC6CC6)cc5)sc4c3=O)cn2)C1 [Example 55, 2-(4-Cyclopropoxy-phenyl)-6-[6-(R)-(3-dimethylamino-pyrrolidin-1-yl)-pyridin-3-yl]-6H-thieno[2,3-c]pyridin-7-one, hydrochloride] | –
